Test results reported in patent US20250002608A1, “TREATMENT OF PAIN” (UTI Limited Partnership, priority 2021, published 2025).

Experiments:
[1] = target: T1, TRPV1 wild type (Homo sapiens, UniProt Q8NER1); experiment: Capsaicin-evoked TRPV1 current (I-V ramp) in HEK cells transfected with TRPV1 wild type; format: cell-based; conditions: capsaicin 100 nM, TRPV1 WT
T1 construct: expressed in transfected cells; host or cells: HEK cells

[2] = system: TRPV1-pHluorin; experiment: Capsaicin-evoked TRPV1 current (I-V ramp) in HEK cells transfected with TRPV1-pHluorin; format: cell-based; conditions: capsaicin 100 nM
[3] = system: DRG neurons from TRPV1-pHluorin mice; experiment: Current-clamp recording of DRG neurons from TRPV1-pHluorin mice exposed to capsaicin; format: cell-based, mouse; conditions: capsaicin 100 nM
Experimental: (§1) DRG neurons were harvested from adult mice and enzymatically dissociated in Hank's balanced salt solution (HBSS) containing 2 mg/ml collagenase type I and 4 mg/ml dispase (Invitrogen) for 45 min at 37° C. […] Electrophysiological recordings were conducted using an external solution containing (in mM): 140.0 NaCl, 1.5 CaCl2, 2.0 MgCl2, 5.0 KCl, 10.0 HEPES, 10.0 D-glucose, pH 7.4 adjusted with NaOH, on the stage of an inverted epi-fluorescence microscope (Olympus IX51). DRG neuron were recorded based on size, knowing that TRPV1 is expressed in small neurons […], and pHluorin fluorescent signal. Action potentials were recorded using current clamp. Borosilicate glass (Harvard Apparatus Ltd.) pipettes were pulled and polished to 2-5 MQ resistance with a DMZ-Universal Puller (Zeitz-Instruments GmbH.) and filled with an internal solution containing (in mM): 140.0 KCl, 5.00 NaCl, 1 CaCl2, 1.0 EGTA, 10.0 HEPES, 1.0 MgCl2, 3.0 ATP Na2, pH 7.3 adjusted with KOH. All solutions were prepared and used at room temperature (22±2° C.) and their osmolarity adjusted to 310 mOsm. […] Recordings were performed using an Axopatch 200B amplifier (Axon Instruments, Foster City, CA, USA). Current-clamp protocols were applied using pClamp 10.4 software (Axon Instruments). […] Average DRG neuron capacitance was 12.45±0.85 pF. […]

[4] = system: DRG neurons from WT mice; experiment: Current-clamp recording of DRG neurons from WT mice exposed to capsaicin; format: cell-based, mouse; conditions: capsaicin 100 nM
Experimental: as §1

[5] = target: T2, TRPV1-pHluorin (Mus musculus, UniProt Q704Y3); experiment: Capsaicin dose-response by calcium imaging on DRG neurons from TRPV1-pHluorin mice; format: cell-based; conditions: read-out: EC50 of dose-response curve evoked by capsaicin, room temperature (22° C.), n=28
T2 construct: fused on or other part: superecliptic pHluorin (ecliptic GFP, EcGFP) inserted into the extracellular turret between His and Lys (615/616; H614/K615 elsewhere in the source)
T2 sequence (Q704Y3 1-615 limits assumed): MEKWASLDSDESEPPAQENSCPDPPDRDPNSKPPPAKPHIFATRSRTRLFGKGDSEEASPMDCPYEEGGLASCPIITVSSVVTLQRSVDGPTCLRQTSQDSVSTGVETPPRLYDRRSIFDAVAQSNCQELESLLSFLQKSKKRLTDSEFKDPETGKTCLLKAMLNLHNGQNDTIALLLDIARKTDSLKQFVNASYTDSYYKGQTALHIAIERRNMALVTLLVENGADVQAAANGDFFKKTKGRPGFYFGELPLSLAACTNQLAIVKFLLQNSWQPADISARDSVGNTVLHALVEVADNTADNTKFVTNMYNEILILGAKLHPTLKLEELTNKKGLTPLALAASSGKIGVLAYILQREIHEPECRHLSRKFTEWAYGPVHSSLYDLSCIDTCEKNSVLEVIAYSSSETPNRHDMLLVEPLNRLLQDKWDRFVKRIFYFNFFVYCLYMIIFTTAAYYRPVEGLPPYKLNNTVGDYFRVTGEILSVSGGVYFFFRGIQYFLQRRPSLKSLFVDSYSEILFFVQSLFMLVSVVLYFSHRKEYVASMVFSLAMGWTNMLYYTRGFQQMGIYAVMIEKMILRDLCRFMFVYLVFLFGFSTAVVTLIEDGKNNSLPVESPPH
T2 sequence (Q704Y3 616-839 limits assumed): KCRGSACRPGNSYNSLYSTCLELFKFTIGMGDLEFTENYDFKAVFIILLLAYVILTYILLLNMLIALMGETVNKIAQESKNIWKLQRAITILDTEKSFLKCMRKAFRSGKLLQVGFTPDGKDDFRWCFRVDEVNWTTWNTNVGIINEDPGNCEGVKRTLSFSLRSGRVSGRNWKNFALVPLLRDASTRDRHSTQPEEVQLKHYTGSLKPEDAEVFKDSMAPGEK

[6] = system: ALK; conditions: human, in vivo; cited from earlier work
[7] = system: small DRG neurons; experiment: Excitability of small DRG neurons exposed to ALKAL2 (current clamp); format: cell-based, mouse; conditions: for resting membrane potential (RMP): small DRG neurons, n=13
Experimental: DRG neurons were harvested from adult mice and enzymatically dissociated in Hank's balanced salt solution (HBSS) containing 2 mg/ml collagenase type I and 4 mg/ml dispase (Invitrogen) for 45 min at 37° C. […] Electrophysiological recordings were conducted using an external solution containing (in mM): 140.0 NaCl, 1.5 CaCl2, 2.0 MgCl2, 5.0 KCl, 10.0 HEPES, 10.0 D-glucose, pH 7.4 adjusted with NaOH, on the stage of an inverted epi-fluorescence microscope (Olympus IX51). DRG neuron were recorded based on size, knowing that TRPV1 is expressed in small neurons […], and pHluorin fluorescent signal. Action potentials were recorded using current clamp. Borosilicate glass (Harvard Apparatus Ltd.) pipettes were pulled and polished to 2-5 MQ resistance with a DMZ-Universal Puller (Zeitz-Instruments GmbH.) and filled with an internal solution containing (in mM): 140.0 KCl, 5.00 NaCl, 1 CaCl2, 1.0 EGTA, 10.0 HEPES, 1.0 MgCl2, 3.0 ATP Na2, pH 7.3 adjusted with KOH. All solutions were prepared and used at room temperature (22±2° C.) and their osmolarity adjusted to 310 mOsm. […] Recordings were performed using an Axopatch 200B amplifier (Axon Instruments, Foster City, CA, USA). Current-clamp protocols were applied using pClamp 10.4 software (Axon Instruments). […] Average DRG neuron capacitance was 12.45±0.85 pF. […] For prolonged ALKAL2 treatment, neurons were incubated with a low concentration of 10 nM for 16 hours.

[8] = system: small (<20 μm) DRG neurons; experiment: Neurite outgrowth of DRG neurons co-cultured with ALKAL2-transfected HEK cells; format: cell-based, mouse
Source text: Previous work has shown that the ALK receptor plays a central role in the development of neural-crest derived cells and neurite outgrowth (18, 19, 37, 38). Using a co-culture system, we tested whether secreted ALKAL2 is able to activate ALK on DRG neurons, thus promoting neurite outgrowth through an autocrine/paracrine signaling process. In this assay, HEK cell monolayers seeded in the upper chamber of a transwell were transfected with ALKAL2, and then placed above acutely dissociated DRG neurons seeded into the lower chamber (FIG. 4A). DRG neurons were exposed to HEK-secreted ALKAL2 for a further 16 hours, after which, neurite growth was assessed on small and medium size neurons (FIG. 4A).
DRG neurons were harvested from adult mice and enzymatically dissociated in Hank's balanced salt solution (HBSS) containing 2 mg/ml collagenase type I and 4 mg/ml dispase (Invitrogen) for 45 min at 37° C. DRGs were rinsed twice in HBSS and once in Neurobasal A culture medium (Thermo Fisher Scientific) supplemented with 2% B-27, 10% heat-inactivated fetal bovine serum (HI-FBS), 100 μg/ml streptomycin, 100 U/ml penicillin, 100 ng/ml of Nerve Growth Factor (NGF) and 100 ng/ml glial cell-derived neurotrophic factor (GDNF) (all from Invitrogen). Individual neurons were dispersed by trituration through a fire-polished glass Pasteur pipette in 4 ml media and cultured overnight at 37° C. with 5% CO2 in 96% humidity on glass coverslips previously treated with 25% Poly-Ornithine and Laminin (both from Sigma).
For co-culture experiments, human embryonic kidney (HEK) 293 tsA-201 cells were grown to 80% confluence at 37° C. (5% CO2) in Dulbecco's modified Eagle's medium (+10% fetal bovine serum, 200 units/ml penicillin and 0.2 mg/ml streptomycin (Invitrogen, Carlsbad, CA, USA)) in the transwell of a 12-well cell culture plate (Gibco). Cells were transfected with 0.5 or 1 μg of ALKAL2 plasmid (Genomics, ABIN3292379) using the calcium phosphate method and washed 12 hours after transfection. After another 8 hours, isolated DRG neurons plated on glass coverslips were placed in the bottom chamber of the 12-well plate and the media was changed to Neurobasal A culture medium (see above). Electrophysiological recordings or immunohistochemistry were conducted 24 hours later.
For the neurite outgrowth assay, cultured DRG neurons were either treated with increasing concentrations ([…], 1 nM, 10 nM, 100 nM and 1 μM) of recombinant mouse ALKAL2 (MyBioSource LLC, MBS14253) or co-cultured with ALKAL2 expressing HEK cells (see above) in Neurobasal A medium. After 24 h, the cells were washed twice with HBSS, fixed in 4% PFA for 15 min., incubated in blocking solution (PBS+1% BSA) for 30 min. and then immunostained with anti-β-tubulin III antibody (rabbit, 1/1000, Sigma-Aldrich) overnight at 4° C. Cells were washed in PBS twice then incubated with a goat-anti rabbit IgG conjugated to Alexa Fluor 488 (1/2000, Invitrogen) for 1 h. After several washes, coverslips were mounted on slides and confocal images acquired. Alexa-488 antibody was visualized by excitation with an argon laser […] and emission detected using a long-pass 530 nm filter. Alexa-555 antibody was visualized by excitation at 543 nm with a HeNe laser, and emission detected using a 585-615 nm band-pass filter.

[9] = target: T3, ALK (Mus musculus, UniProt P97793); experiment: Thermal hyperalgesia induced by intrathecal ALKAL2; format: in vivo
T3 construct: from tissue; host or cells: living mice, spinal dorsal horn
T3 sequence (P97793 19-1621): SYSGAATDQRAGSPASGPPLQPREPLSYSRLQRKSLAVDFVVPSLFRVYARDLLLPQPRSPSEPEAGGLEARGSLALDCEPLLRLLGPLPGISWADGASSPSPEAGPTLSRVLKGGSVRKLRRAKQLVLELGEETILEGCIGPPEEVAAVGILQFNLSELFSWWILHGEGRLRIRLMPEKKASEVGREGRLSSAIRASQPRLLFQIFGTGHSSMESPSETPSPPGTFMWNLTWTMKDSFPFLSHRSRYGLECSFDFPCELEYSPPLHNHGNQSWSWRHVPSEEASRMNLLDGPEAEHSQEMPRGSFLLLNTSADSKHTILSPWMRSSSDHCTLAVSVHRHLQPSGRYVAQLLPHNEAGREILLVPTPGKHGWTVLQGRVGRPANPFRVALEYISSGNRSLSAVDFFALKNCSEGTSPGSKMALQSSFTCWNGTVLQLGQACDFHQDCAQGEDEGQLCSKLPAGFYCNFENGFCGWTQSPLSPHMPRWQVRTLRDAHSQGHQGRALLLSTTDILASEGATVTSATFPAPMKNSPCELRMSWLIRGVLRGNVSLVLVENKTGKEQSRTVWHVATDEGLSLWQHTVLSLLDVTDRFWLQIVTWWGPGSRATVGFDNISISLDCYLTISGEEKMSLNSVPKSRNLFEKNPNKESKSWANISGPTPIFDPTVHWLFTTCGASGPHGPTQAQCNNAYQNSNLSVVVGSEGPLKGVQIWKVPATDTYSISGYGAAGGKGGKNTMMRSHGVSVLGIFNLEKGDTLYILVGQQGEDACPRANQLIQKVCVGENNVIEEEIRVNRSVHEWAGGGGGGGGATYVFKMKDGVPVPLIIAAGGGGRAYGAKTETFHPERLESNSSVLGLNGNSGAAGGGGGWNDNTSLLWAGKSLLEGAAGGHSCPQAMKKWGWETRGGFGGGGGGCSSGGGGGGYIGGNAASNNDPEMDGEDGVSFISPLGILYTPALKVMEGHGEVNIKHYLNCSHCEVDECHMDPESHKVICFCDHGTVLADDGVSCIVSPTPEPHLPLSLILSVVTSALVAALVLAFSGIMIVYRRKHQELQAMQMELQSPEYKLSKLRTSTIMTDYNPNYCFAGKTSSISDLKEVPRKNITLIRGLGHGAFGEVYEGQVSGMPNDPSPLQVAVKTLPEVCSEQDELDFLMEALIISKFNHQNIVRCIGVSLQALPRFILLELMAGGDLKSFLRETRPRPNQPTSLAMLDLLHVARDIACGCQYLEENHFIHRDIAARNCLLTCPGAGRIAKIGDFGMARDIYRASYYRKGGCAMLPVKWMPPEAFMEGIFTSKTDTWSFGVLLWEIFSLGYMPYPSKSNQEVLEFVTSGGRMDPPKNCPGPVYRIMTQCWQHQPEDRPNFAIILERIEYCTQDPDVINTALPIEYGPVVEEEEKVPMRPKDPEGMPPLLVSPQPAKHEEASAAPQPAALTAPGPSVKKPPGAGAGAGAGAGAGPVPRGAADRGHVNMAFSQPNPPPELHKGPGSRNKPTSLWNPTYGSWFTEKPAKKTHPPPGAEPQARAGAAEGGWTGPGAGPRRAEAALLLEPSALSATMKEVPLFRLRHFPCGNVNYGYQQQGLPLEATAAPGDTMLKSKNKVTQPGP
Experimental: (§2) Intrathecal injections were performed in conscious mice. Briefly, mice were manually restrained, the dorsal fur of each mouse was shaved, the spinal column was arched, and a 30-gauge needle attached in a PE20 Polyethylene tube to a 25 μl Hamilton micro syringe (Hamilton, Birmingham, UK) was inserted into the subarachnoid space between the L4 and L5 vertebrae. Accurate positioning of the needle tip was confirmed by a characteristic tail-flick response of animal when the needle if correctly positioned. Intrathecal injections of 10 μl were delivered over a period of 5 seconds.
Three trials for each mouse were performed.

[10] = target: T3, ALK; experiment: pALK immunostaining in the spinal dorsal horn after intrathecal ALKAL2; format: in vivo; conditions: 30 min following intrathecal ALKAL2 injection
Experimental: as §2

[11] = target: anaplastic lymphoma kinase (ALK) receptor, endogenous on mouse DRG neurons and in the mouse spinal dorsal horn (mouse) (UniProt P97793); experiment: cell-based or functional assay
anaplastic lymphoma kinase (ALK) receptor, endogenous on mouse DRG neurons and in the mouse spinal dorsal horn (mouse), sequence (P97793 19-1621): as above

[12] = ALKAL2 co-culture in the presence of Lorlatinib 1 μM
[13] = ALKAL2 plasmid co-culture 16 h, small DRG neurons
[14] = ALKAL2 transfected condition vs control

T1 sequence (Q8NER1 whole entry, species assumed): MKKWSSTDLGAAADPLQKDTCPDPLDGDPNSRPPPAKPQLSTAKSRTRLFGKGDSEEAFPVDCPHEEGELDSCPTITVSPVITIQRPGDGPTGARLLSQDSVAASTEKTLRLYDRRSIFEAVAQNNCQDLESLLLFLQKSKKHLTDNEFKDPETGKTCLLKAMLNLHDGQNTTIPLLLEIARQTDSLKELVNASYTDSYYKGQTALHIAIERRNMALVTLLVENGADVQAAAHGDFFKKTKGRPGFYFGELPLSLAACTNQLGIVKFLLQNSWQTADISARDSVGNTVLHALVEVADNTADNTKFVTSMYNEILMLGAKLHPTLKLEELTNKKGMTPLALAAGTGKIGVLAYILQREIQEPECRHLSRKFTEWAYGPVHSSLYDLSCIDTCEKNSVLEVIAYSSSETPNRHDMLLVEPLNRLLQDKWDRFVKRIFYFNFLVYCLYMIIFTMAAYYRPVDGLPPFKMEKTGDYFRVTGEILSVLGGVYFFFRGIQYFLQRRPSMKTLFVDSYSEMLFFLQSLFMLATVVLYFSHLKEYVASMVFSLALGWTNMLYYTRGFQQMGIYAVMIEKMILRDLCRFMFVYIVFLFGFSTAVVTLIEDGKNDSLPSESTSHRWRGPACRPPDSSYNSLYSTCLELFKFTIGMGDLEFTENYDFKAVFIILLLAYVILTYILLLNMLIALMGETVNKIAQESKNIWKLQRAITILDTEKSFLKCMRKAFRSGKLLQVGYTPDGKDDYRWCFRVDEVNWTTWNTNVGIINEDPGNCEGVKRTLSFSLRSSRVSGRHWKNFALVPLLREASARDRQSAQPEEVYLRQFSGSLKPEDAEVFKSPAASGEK

COc1cc(CNC(=O)CCCC/C=C/C(C)C)ccc1O [capsaicin]
peak inward current at −100 mV [1]: −10.2±1.63 pA/pF | peak outward current at +100 mV [1]: 62.82±11.72 pA/pF | peak inward current at −100 mV [2]: −7.33±2.91 pA/pF | peak outward current at +100 mV [2]: 61.36±11.97 pA/pF | resting membrane potential after application of capsaicin [3]: −38.01±2.17 mV | AP frequency after capsaicin ([3]; 400 pA current injection): 17.22±0.84 Hz | resting membrane potential after application of capsaicin [4]: −36.61±1.83 mV | AP frequency after capsaicin ([4]; 400 pA current injection): 18.56±2.44 Hz | EC50 [5]: 1060 ± 90 nM

Cc1cc(Nc2ncc(Cl)c(Nc3ccccc3S(=O)(=O)C(C)C)n2)c(OC(C)C)cc1C1CCNCC1 [Ceritinib]
effect on pain in NSCL cancer patients [6]: could reduce chest, arm and shoulder pain

C[C@H]1Oc2cc(cnc2N)-c2c(nn(C)c2C#N)CN(C)C(=O)c2ccc(F)cc21 [Lorlatinib]
action potential (AP) threshold ([7]; ALKAL2+Lorlatinib group, n=9): −31.59±1.76 mV | resting membrane potential (RMP) ([7]; ALKAL2+Lorlatinib group): −54.5±1.53 mV | neurites per neuron [8, 12]: 8.7±1.9 | number of branch points per neuron [8, 12]: 3.6±0.5 | total neurite length per neuron [8, 12]: 83±8.8 μm

B1: ALKAL2: ligand of the ALK receptor; recombinant mouse ALKAL2 or secreted by HEK cells transfected with ALKAL2 plasmid (protein)
chain: QSRGPADRQTLLRLLVELVQELKKFHIGDSKRLQLLGESDFALGRREATDYGADQEEQRVEIVPRDLRMKDKFLKHLTGPLYFSPKCSKHFHRLYHNTRDCTIPAYYKRCARLLTRLAVSPMCMER
action potential (AP) threshold ([7]; ALKAL2 group, n=11): −40.57±2.88 mV | resting membrane potential (RMP) ([7]; ALKAL2 group): −55.15±2.21 mV | AP frequency evoked by ascending steps of injected current ([7]; recombinant ALKAL2 for 16 h (10 nM)): pronounced increase | number of branch points per neuron [8, 13]: 8.9±0.9 | total neurite length per neuron [8, 13]: 267.1±2.2 μm | total neurites per neuron [8, 13]: 18.6±1.2 | increase in the total neurite length per neuron [8, 14]: five-fold increase | increase in the total number of neurites (primary and secondary branches) and branching points [8, 14]: two-fold increase | time after administration at which thermal hypersensitivity is back to baseline ([9]; intrathecal ALKAL2, n=5 each group): 72 h | thermal hyperalgesia in naïve mice ([9]; recombinant ALKAL2 intrathecal, 0.01, 0.1, 1 uM): induced thermal hyperalgesia lasting several hours in a dose-dependent manner | pALK in the spinal dorsal horn [10]: increase in pALK

B2: ALKAL2 secreted by HEK 293 tsA-201 cells transfected with ALKAL2 plasmid (Genomics, ABIN3292379) (ligand, UniProt Q6UX46 25-152, looked up, species assumed)
ALK and LTK ligand 2: GAEPREPADGQALLRLVVELVQELRKHHSAEHKGLQLLGRDCALGRAEAAGLGPSPEQRVEIVPRDLRMKDKFLKHLTGPLYFSPKCSKHFHRLYHNTRDCTIPAYYKRCARLLTRLAVSPVCMEDKQ
total neurite length per neuron [11]: 267 µm | total neurite length per neuron, transwell co-culture [11]: 5 fold | total neurites in small (<20 µm) DRG neurons (neurites per neuron) [11]: 18.6
